Test results: US20240343733A1, “COMPOUNDS FOR TARGETING DEGRADATION OF IRAK4 PROTEINS” (BIOGEN MA INC., priority 2021, published 2024)

Biological target: T1, IRAK4 (Homo sapiens, UniProt Q9NWZ3)
T1 construct: 293Tcells expressing HiBiT-tagged IRAK4 were then added into 384-well plates
T1 sequence (Q9NWZ3 1-460): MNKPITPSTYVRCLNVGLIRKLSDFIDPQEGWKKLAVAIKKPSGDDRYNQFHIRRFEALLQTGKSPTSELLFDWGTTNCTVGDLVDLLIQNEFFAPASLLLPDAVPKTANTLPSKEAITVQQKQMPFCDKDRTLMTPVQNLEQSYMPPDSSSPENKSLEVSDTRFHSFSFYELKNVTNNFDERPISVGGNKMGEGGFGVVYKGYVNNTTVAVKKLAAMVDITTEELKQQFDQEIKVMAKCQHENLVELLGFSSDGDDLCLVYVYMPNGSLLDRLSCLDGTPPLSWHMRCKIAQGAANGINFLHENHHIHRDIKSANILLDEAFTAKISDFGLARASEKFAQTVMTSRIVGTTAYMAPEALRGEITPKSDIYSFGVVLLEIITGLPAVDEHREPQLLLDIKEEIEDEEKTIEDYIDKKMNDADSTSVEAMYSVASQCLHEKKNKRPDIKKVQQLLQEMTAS
Assay: IRAK4 Degradation Assay, HiBiT Method
Format: cell-based
Conditions: 293T cells expressing HiBiT-tagged IRAK4, 6 hours
Outline: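 293T cells with HiBiT knocked in at the C-terminus of endogenous IRAK4, 10,000 per well, treated 6 h at 37 °C with an 11-point half-log series ([…]), in duplicate. Remaining IRAK4 read by Nano-Glo HiBiT lytic luminescence against DMSO-only and media-only controls.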

DC50 | SMILES
0.01 to 0.1 µM | CC(C)Oc1cc2nn([C@H]3CC[C@H](CN4CCOC[C@@H]4Cc4ccc(OC5CCC(=O)NC5=O)cc4)CC3)cc2cc1C(=O)Nc1cnn2cccnc12 (stereo partly drawn) [Example 131, 2-((1R,4r)-4-(((3R)-3-(4-((2,6-dioxopiperidin-3-yl)oxy)benzyl)morpholino)methyl)cyclohexyl)-6-isopropoxy-N-(pyrazolo[1,5-a]pyrimidin-3-yl)-2H-indazole-5-carboxamide]
< 0.01 µM | CC(C)Oc1cc2nn([C@H]3CC[C@H](CN4CCOC[C@@H]4Cc4ccc(OC5CCC(=O)NC5=O)cc4)CC3)cc2cc1C(=O)Nc1cccn([C@H]2C[C@H]2F)c1=O (stereo partly drawn) [Example 135, 2-((1S,4S)-4-(((3S)-3-(4-((2,6-dioxopiperidin-3-yl)oxy)benzyl)morpholino)methyl)cyclohexyl)-N-(1-((1S,2R)-2-fluorocyclopropyl)-2-oxo-1,2-dihydropyridin-3-yl)-6-isopropoxy-2H-indazole-5-carboxamide]
< 0.01 µM | CC(C)Oc1cc2nn([C@H]3CC[C@H](CN4CC[C@@H](c5ncc(NC6CCC(=O)NC6=O)cc5F)[C@H](O)C4)CC3)cc2cc1C(=O)Nc1cccn([C@H]2C[C@H]2F)c1=O (stereo partly drawn) [Example 136, 2-((1S,4S)-4-(((3S,4S)-4-(5-((2,6-dioxopiperidin-3-yl)amino)-3-fluoropyridin-2-yl)-3-hydroxypiperidin-1-yl)methyl)cyclohexyl)-N-(1-((1S,2R)-2-fluorocyclopropyl)-2-oxo-1,2-dihydropyridin-3-yl)-6-isopropoxy-2H-indazole-5-carboxamide]
< 0.01 µM | CC(C)Oc1cc2nn([C@H]3CC[C@H](CN4CCCCC4Cc4ccc(OC5CCC(=O)NC5=O)cc4)CC3)cc2cc1C(=O)Nc1cccn([C@H]2C[C@H]2F)c1=O (stereo partly drawn) [Example 139, 2-((1r,4S)-4-((2-(4-((2,6-dioxopiperidin-3-yl)oxy)benzyl)piperidin-1-yl)methyl)cyclohexyl)-N-(1-((1S,2R)-2-fluorocyclopropyl)-2-oxo-1,2-dihydropyridin-3-yl)-6-isopropoxy-2H-indazole-5-carboxamide]
< 0.01 µM | CC(C)Oc1cc2nn([C@H]3CC[C@H](CN4CCC(c5ccc(OC6CCC(=O)NC6=O)cc5)CC4)CC3)cc2cc1C(=O)Nc1cccn([C@H]2C[C@H]2F)c1=O (stereo partly drawn) [Example 141, 2-((1r,4S)-4-((4-(4-((2,6-dioxopiperidin-3-yl)oxy)phenyl)piperidin-1-yl)methyl)cyclohexyl)-N-(1-((1S,2R)-2-fluorocyclopropyl)-2-oxo-1,2-dihydropyridin-3-yl)-6-isopropoxy-2H-indazole-5-carboxamide]

Further lines, the compound ahead of its results:

SMILES | DC50
CC(C)Oc1cc2nn([C@H]3CC[C@H](CN4CCC(c5cc6c(cc5F)c(N5CCC(=O)NC5=O)nn6C)CC4)CC3)cc2cc1C(=O)Nc1cccn([C@H]2C[C@H]2F)c1=O [Example 130, 2-((1r,4S)-4-((4-(3-(2,4-dioxotetrahydropyrimidin-1(2H)-yl)-5-fluoro-1-methyl-1H-indazol-6-yl)piperidin-1-yl)methyl)cyclohexyl)-N-(1-((1S,2R)-2-fluorocyclopropyl)-2-oxo-1,2-dihydropyridin-3-yl)-6-isopropoxy-2H-indazole-5-carboxamide] | < 0.01 µM
CC(C)Oc1cc2nn([C@H]3CC[C@H](CN4CC[C@@H](c5ccc6c(N7CCC(=O)NC7=O)nn(C)c6c5)[C@H](O)C4)CC3)cc2cc1C(=O)Nc1cccn([C@H]2C[C@H]2F)c1=O [Example 132, 2-((1S,4S)-4-(((3S,4S)-4-(3-(2,4-dioxotetrahydropyrimidin-1(2H)-yl)-1-methyl-1H-indazol-6-yl)-3-hydroxypiperidin-1-yl)methyl)cyclohexyl)-N-(1-((1S,2R)-2-fluorocyclopropyl)-2-oxo-1,2-dihydropyridin-3-yl)-6-isopropoxy-2H-indazole-5-carboxamide] | < 0.01 µM
CC(C)Oc1cc2nn([C@H]3CC[C@H](CN4CC[C@@H](c5ccc6c(C7CCC(=O)NC7=O)nn(C)c6c5)[C@@H](O)C4)CC3)cc2cc1C(=O)Nc1cccn([C@H]2C[C@H]2F)c1=O (stereo partly drawn) [Example 133, 2-((1R,4S)-4-(((3R,4S)-4-(3-(2,6-dioxopiperidin-3-yl)-1-methyl-1H-indazol-6-yl)-3-hydroxypiperidin-1-yl)methyl)cyclohexyl)-N-(1-((1S,2R)-2-fluorocyclopropyl)-2-oxo-1,2-dihydropyridin-3-yl)-6-isopropoxy-2H-indazole-5-carboxamide] | < 0.01 µM
CO[C@H]1CN(C[C@H]2CC[C@H](n3cc4cc(C(=O)Nc5cccn([C@H]6C[C@H]6F)c5=O)c(OC(C)C)cc4n3)CC2)CC[C@H]1c1ccc2c(N3CCC(=O)NC3=O)nn(C)c2c1 [Example 134, 2-((1R,4S)-4-(((3R,4S)-4-(3-(2,4-dioxotetrahydropyrimidin-1(2H)-yl)-1-methyl-1H-indazol-6-yl)-3-methoxypiperidin-1-yl)methyl)cyclohexyl)-N-(1-((1S,2R)-2-fluorocyclopropyl)-2-oxo-1,2-dihydropyridin-3-yl)-6-isopropoxy-2H-indazole-5-carboxamide] | < 0.01 µM
CC(C)Oc1cc2nn([C@H]3CC[C@H](CN4CCC(c5ccc6c(c5)n(C)c(=O)n6C5CCC(=O)NC5=O)CC4)CC3)cc2cc1C(=O)Nc1cccn([C@H]2C[C@H]2F)c1=O (stereo partly drawn) [Example 137, 2-((1r,4S)-4-((4-(1-(2,6-dioxopiperidin-3-yl)-3-methyl-2-oxo-2,3-dihydro-1H-benzo[d]imidazol-5-yl)piperidin-1-yl)methyl)cyclohexyl)-N-(1-((1S,2R)-2-fluorocyclopropyl)-2-oxo-1,2-dihydropyridin-3-yl)-6-isopropoxy-2H-indazole-5-carboxamide] | < 0.01 µM
CC(C)Oc1cc2nn([C@H]3CC[C@H](CN[C@@H]4CC[C@H](c5ccc6c(N7CCC(=O)NC7=O)nn(C)c6c5)[C@H](O)C4)CC3)cc2cc1C(=O)Nc1cccn([C@H]2C[C@H]2F)c1=O [Example 138, 2-((1R,4S)-4-((((1R,3R,4R)-4-(3-(2,4-dioxotetrahydropyrimidin-1(2H)-yl)-1-methyl-1H-indazol-6-yl)-3-hydroxycyclohexyl)amino)methyl)cyclohexyl)-N-(1-((1S,2R)-2-fluorocyclopropyl)-2-oxo-1,2-dihydropyridin-3-yl)-6-isopropoxy-2H-indazole-5-carboxamide] | < 0.01 µM
CO[C@H]1CN(C[C@H]2CC[C@H](n3cc4cc(C(=O)Nc5cccn(C6CC6)c5=O)c(OC(C)C)cc4n3)CC2)CC[C@H]1c1ccc2c(N3CCC(=O)NC3=O)nn(C)c2c1 [Example 140, N-(1-cyclopropyl-2-oxo-1,2-dihydropyridin-3-yl)-2-((1R,4r)-4-(((3R,4S)-4-(3-(2,4-dioxotetrahydropyrimidin-1(2H)-yl)-1-methyl-1H-indazol-6-yl)-3-methoxypiperidin-1-yl)methyl)cyclohexyl)-6-isopropoxy-2H-indazole-5-carboxamide] | < 0.01 µM
CC(C)Oc1cc2nn([C@H]3CC[C@H](CN4CCC(c5ccc6c(N7CCC(=O)NC7=O)nn(C)c6c5)CC4)CC3)cc2cc1C(=O)Nc1cccn([C@H]2C[C@H]2F)c1=O [Example 144, 2-((1r,4S)-4-((4-(3-(2,4-dioxotetrahydropyrimidin-1(2H)-yl)-1-methyl-1H-indazol-6-yl)piperidin-1-yl)methyl)cyclohexyl)-N-(1-((1S,2R)-2-fluorocyclopropyl)-2-oxo-1,2-dihydropyridin-3-yl)-6-isopropoxy-2H-indazole-5-carboxamide] | < 0.01 µM
